Experimental data published in PubChem BioAssay (NCI).
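Growth conditions: 96-well plates. Treatment: test compound, 48 hours, 5 concentrations. Analysis: linear interpolation between bracketing concentrations; unreached endpoints set to highest concentration. TGI is the concentration that stops growth completely.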

Legend:
Assay in all cases: growth of human tumour cells (NCI), 48 h
UACC-257 melanoma = system: UACC-257 melanoma
OVCAR-4 ovarian = system: OVCAR-4 ovarian
SK-MEL-5 melanoma = system: SK-MEL-5 melanoma
SW-620 colon = system: SW-620 colon
COLO 205 colon = system: COLO 205 colon
CCRF-CEM leukemia = system: CCRF-CEM leukemia
NCI-H522 lung = system: NCI-H522 lung
CAKI-1 renal = system: CAKI-1 renal
LOX IMVI melanoma = system: LOX IMVI melanoma
RPMI-8226 leukemia = system: RPMI-8226 leukemia
SR leukemia = system: SR leukemia
K-562 leukemia = system: K-562 leukemia
SNB-19 CNS = system: SNB-19 CNS
A549 NSCLC = system: A549 NSCLC
SF-295 CNS = system: SF-295 CNS
OVCAR-3 ovarian = system: OVCAR-3 ovarian
ACHN renal = system: ACHN renal
SF-539 CNS = system: SF-539 CNS
MOLT-4 leukemia = system: MOLT-4 leukemia
HCT-15 colon = system: HCT-15 colon
IGROV1 ovarian = system: IGROV1 ovarian
MALME-3M melanoma = system: MALME-3M melanoma
NCI-H460 lung = system: NCI-H460 lung
TK-10 renal = system: TK-10 renal
LXFL 529 NSCLC = system: LXFL 529 NSCLC
SN12C renal = system: SN12C renal
DLD-1 colon = system: DLD-1 colon
SK-MEL-2 melanoma = system: SK-MEL-2 melanoma
SF-268 CNS = system: SF-268 CNS
HT29 colon = system: HT29 colon
HOP-18 NSCLC = system: HOP-18 NSCLC
OVCAR-8 ovarian = system: OVCAR-8 ovarian
HOP-62 NSCLC = system: HOP-62 NSCLC
SK-MEL-28 melanoma = system: SK-MEL-28 melanoma
M14 melanoma = system: M14 melanoma
SNB-75 CNS = system: SNB-75 CNS
KM12 colon = system: KM12 colon
U251 CNS = system: U251 CNS
UO-31 renal = system: UO-31 renal
A498 renal = system: A498 renal
NCI-H226 lung = system: NCI-H226 lung
HCC-2998 colon = system: HCC-2998 colon
SK-OV-3 ovarian = system: SK-OV-3 ovarian
OVCAR-5 ovarian = system: OVCAR-5 ovarian
DMS 114 small cell lung = system: DMS 114 small cell lung
NCI-H23 lung = system: NCI-H23 lung
M19-MEL melanoma = system: M19-MEL melanoma
786-0 renal = system: 786-0 renal
SNB-78 CNS = system: SNB-78 CNS
HOP-92 NSCLC = system: HOP-92 NSCLC
DMS 273 small cell lung = system: DMS 273 small cell lung
RXF 393 renal = system: RXF 393 renal
HL-60(TB) leukemia = system: HL-60(TB) leukemia
UACC-62 melanoma = system: UACC-62 melanoma
KM20L2 colon = system: KM20L2 colon
HCT-116 colon = system: HCT-116 colon
BT-549 breast = system: BT-549 breast
MDA-N = system: MDA-N
MDA-MB-435 = system: MDA-MB-435
NCI/ADR-RES ovarian = system: NCI/ADR-RES ovarian
MCF7 breast = system: MCF7 breast
T-47D breast = system: T-47D breast
EKVX NSCLC = system: EKVX NSCLC
PC-3 prostate = system: PC-3 prostate
HS 578T breast = system: HS 578T breast
DU-145 prostate = system: DU-145 prostate
MDA-MB-231 breast = system: MDA-MB-231 breast

With `COC(=O)NC(=O)c1cn(C2CCCCC2)c(=O)[nH]c1=O` the TGI (UACC-257 melanoma) was over 100 µM, the TGI (OVCAR-4 ovarian) was over 100 µM and the TGI (SK-MEL-5 melanoma) was over 100 µM. The TGI (SW-620 colon) was over 100 µM, the TGI (COLO 205 colon) was over 100 µM and the TGI (CCRF-CEM leukemia) was over 100 µM. For the same compound, the TGI (NCI-H522 lung) was over 100 µM, the TGI (CAKI-1 renal) was over 100 µM and the TGI (LOX IMVI melanoma) was over 100 µM. It also gave a TGI (RPMI-8226 leukemia) of over 100 µM, a TGI (SR leukemia) of over 100 µM and a TGI (K-562 leukemia) of over 100 µM. The TGI (SNB-19 CNS) was over 100 µM, the TGI (A549 NSCLC) was over 100 µM and the TGI (SF-295 CNS) was over 100 µM. It also gave a TGI (OVCAR-3 ovarian) of over 100 µM, a TGI (ACHN renal) of over 100 µM and a TGI (SF-539 CNS) of over 100 µM. The TGI (MOLT-4 leukemia) was over 100 µM, the TGI (HCT-15 colon) was over 100 µM and the TGI (IGROV1 ovarian) was over 100 µM. It also gave a TGI (MALME-3M melanoma) of over 100 µM, a TGI (NCI-H460 lung) of over 100 µM and a TGI (TK-10 renal) of over 100 µM. It also gave a TGI (LXFL 529 NSCLC) of over 100 µM, a TGI (SN12C renal) of over 100 µM and a TGI (DLD-1 colon) of over 100 µM. It also gave a TGI (SK-MEL-2 melanoma) of over 100 µM, a TGI (SF-268 CNS) of over 100 µM and a TGI (HT29 colon) of over 100 µM. It also gave a TGI (HOP-18 NSCLC) of over 100 µM, a TGI (OVCAR-8 ovarian) of over 100 µM and a TGI (HOP-62 NSCLC) of over 100 µM. For the same compound, the TGI (SK-MEL-28 melanoma) was over 100 µM, the TGI (M14 melanoma) was over 100 µM and the TGI (SNB-75 CNS) was over 100 µM. It also gave a TGI (KM12 colon) of over 100 µM, a TGI (U251 CNS) of over 100 µM and a TGI (UO-31 renal) of over 100 µM. The TGI (A498 renal) was over 100 µM, the TGI (NCI-H226 lung) was over 100 µM and the TGI (HCC-2998 colon) was over 100 µM. It also gave a TGI (SK-OV-3 ovarian) of over 100 µM, a TGI (OVCAR-5 ovarian) of over 100 µM and a TGI (DMS 114 small cell lung) of over 100 µM. It also gave a TGI (NCI-H23 lung) of over 100 µM, a TGI (M19-MEL melanoma) of over 100 µM and a TGI (786-0 renal) of over 100 µM. The TGI (SNB-78 CNS) was over 100 µM, the TGI (HOP-92 NSCLC) was over 100 µM and the TGI (DMS 273 small cell lung) was over 100 µM. It also gave a TGI (RXF 393 renal) of over 100 µM, a TGI (HL-60(TB) leukemia) of over 100 µM and a TGI (UACC-62 melanoma) of over 100 µM. It also gave a TGI (KM20L2 colon) of over 100 µM and a TGI (HCT-116 colon) of over 100 µM.
In the case of `CC(C)NC(=O)OCc1c(COC(=O)NC(C)C)c(-c2cc[n+](COC(=O)C(C)C)cc2)n2c1CCC2`, the TGI (UACC-257 melanoma) is reported as over 100 µM, the TGI (OVCAR-4 ovarian) is reported as over 100 µM and the TGI (SK-MEL-5 melanoma) is reported as over 100 µM. The TGI (SW-620 colon) was over 100 µM, the TGI (COLO 205 colon) was over 100 µM and the TGI (CCRF-CEM leukemia) was over 100 µM. For the same compound, the TGI (NCI-H522 lung) was over 100 µM, the TGI (CAKI-1 renal) was over 94.8 µM and the TGI (LOX IMVI melanoma) was over 100 µM. For the same compound, the TGI (RPMI-8226 leukemia) was over 100 µM, the TGI (SR leukemia) was over 63.3 µM and the TGI (K-562 leukemia) was over 100 µM. It also gave a TGI (SNB-19 CNS) of over 100 µM, a TGI (BT-549 breast) of over 100 µM and a TGI (A549 NSCLC) of over 100 µM. The TGI (SF-295 CNS) was over 100 µM, the TGI (OVCAR-3 ovarian) was over 100 µM and the TGI (ACHN renal) was over 82.7 µM. The TGI (SF-539 CNS) was over 100 µM, the TGI (MOLT-4 leukemia) was 99.2 µM and the TGI (MDA-N) was over 100 µM. It also gave a TGI (HCT-15 colon) of over 100 µM, a TGI (IGROV1 ovarian) of over 100 µM and a TGI (MALME-3M melanoma) of over 100 µM. For the same compound, the TGI (MDA-MB-435) was over 100 µM, the TGI (NCI-H460 lung) was over 100 µM and the TGI (TK-10 renal) was over 100 µM. For the same compound, the TGI (NCI/ADR-RES ovarian) was over 100 µM, the TGI (SN12C renal) was over 100 µM and the TGI (SK-MEL-2 melanoma) was over 100 µM. For the same compound, the TGI (SF-268 CNS) was over 100 µM, the TGI (MCF7 breast) was over 100 µM and the TGI (HT29 colon) was over 100 µM. For the same compound, the TGI (T-47D breast) was over 100 µM, the TGI (OVCAR-8 ovarian) was over 100 µM and the TGI (EKVX NSCLC) was over 100 µM. For the same compound, the TGI (HOP-62 NSCLC) was over 100 µM, the TGI (SK-MEL-28 melanoma) was over 100 µM and the TGI (M14 melanoma) was over 100 µM. For the same compound, the TGI (SNB-75 CNS) was over 100 µM, the TGI (KM12 colon) was over 100 µM and the TGI (U251 CNS) was over 100 µM. The TGI (UO-31 renal) was over 100 µM, the TGI (A498 renal) was 35.9 µM and the TGI (PC-3 prostate) was over 100 µM. For the same compound, the TGI (NCI-H226 lung) was over 100 µM, the TGI (HS 578T breast) was over 100 µM and the TGI (HCC-2998 colon) was over 100 µM. The TGI (SK-OV-3 ovarian) was over 100 µM, the TGI (DU-145 prostate) was over 100 µM and the TGI (OVCAR-5 ovarian) was over 100 µM. For the same compound, the TGI (NCI-H23 lung) was over 100 µM, the TGI (786-0 renal) was over 100 µM and the TGI (HOP-92 NSCLC) was over 100 µM. For the same compound, the TGI (RXF 393 renal) was 62.5 µM, the TGI (HL-60(TB) leukemia) was over 77.7 µM and the TGI (MDA-MB-231 breast) was over 100 µM. It also gave a TGI (UACC-62 melanoma) of over 100 µM and a TGI (HCT-116 colon) of over 100 µM.
